Experimental data from EP2913333A1 (priority 2014, dated 2015).
Where a name gives a salt, the structure may show the parent alone.

What was measured:
[1] = molecular target: T1, S. Agalactiae DltA (Streptococcus agalactiae serotype III, UniProt Q8VM67); assay: biochemical
T1 sequence (Q8VM67 1-511): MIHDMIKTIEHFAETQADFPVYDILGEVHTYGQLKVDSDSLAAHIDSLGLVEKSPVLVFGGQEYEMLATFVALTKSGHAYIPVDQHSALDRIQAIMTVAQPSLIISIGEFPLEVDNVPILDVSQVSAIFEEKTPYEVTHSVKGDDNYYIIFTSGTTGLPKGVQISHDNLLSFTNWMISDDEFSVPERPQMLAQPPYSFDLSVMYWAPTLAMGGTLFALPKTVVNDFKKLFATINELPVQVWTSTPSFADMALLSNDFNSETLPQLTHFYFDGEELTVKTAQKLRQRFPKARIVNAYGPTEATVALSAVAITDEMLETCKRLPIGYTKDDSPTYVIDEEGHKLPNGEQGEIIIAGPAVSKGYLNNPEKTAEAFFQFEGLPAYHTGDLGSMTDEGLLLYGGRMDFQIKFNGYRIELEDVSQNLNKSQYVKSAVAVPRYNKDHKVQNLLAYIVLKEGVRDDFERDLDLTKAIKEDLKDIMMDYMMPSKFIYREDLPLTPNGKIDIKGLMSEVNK
Description: (§1) To this end, recombinant proteins DltA were expressed and purified after cloning of the genes of S. aureus, E. faecalis, E. faecium and S. agalactiae as described thereafter. The capacity of the compounds of the invention to inhibit DltA enzymatic activity was assessed using the DltA assays as described below: • The dltA gene was amplified from chromosomal DNA of S. aureus, E. faecalis, E. faecium and S. agalactiae and introduced into E. coli BL21 (Invitrogen, Carlsbad, CA) following manufacturer's instruction. Bacteria were grown at 37°C under aerobic conditions and isopropyl-beta-D-thiogalactopyranoside (IPTG) was added to 0.5-1 mM when OD600 of the bacterial culture had reached 0.5. After a further incubation for 3 hours, cells were harvested by centrifugation. Purification of the recombinant DltA protein was performed by affinity chromatography on nickel-nitrilotriacetic acid (Ni-NTA) column following manufacturer's instructions (Qiagen). Fractions containing recombinant DltA protein were adjusted to 50% glycerol and stored at -20°C until use.
(§2) The binding potency of the inhibitors against DltA enzyme was assessed by IC50 determination in an in vitro DltA activity assay. The assay buffer "AB" contained 50 mM Hepes pH8.0, 10mM MgCl2, 50mM KCI, 0.012% Triton-X100, 10mM DTT and 100nM Myelin-basic protein. The following components were added in a white polystyrene Costar plate up to a final volume of 30µL: 3µL DMSO, or inhibitor dissolved in DMSO and 27µL DltA enzyme in AB. After 30min of preincubation at room temperature, 30µL of Substrates mix in AB were added in each well to a final volume of 60µL. This reaction mixture was then composed of DltA (produced in house from S. aureus, E. faecalis, E. faecium and S. agalactiae), 0.5mM D-Alanine (Sigma), 0.5-5µM ATP (Sigma) and 0.05 u/ml inorganic pyrophosphatase (Sigma) in assay buffer. After typically 1-2hours of incubation at room temperature (conversion rate around 30%), 30µL of the revelation mix were added to a final volume of 90µL, including the following constituents at the respective final concentrations: 10000 u/ml luciferase (Sigma), 30µM D-luciferin (Sigma), 100µM N-acetylcysteamine (Aldrich). Luminescence intensity was immediately measured on a Fluostar Optima (BMG) (excitation 360nm, emission 520nm) and converted into inhibition percentages.
(§3) For compounds interfering with the luminescent signal (quenching), the same experiment without DltA enzyme was performed to allow quenching determination and correction.

[2] = molecular target: T2, E. feacalis DltA (Enterococcus faecalis, UniProt Q830N0); assay: biochemical
T2 sequence (Q830N0 1-506): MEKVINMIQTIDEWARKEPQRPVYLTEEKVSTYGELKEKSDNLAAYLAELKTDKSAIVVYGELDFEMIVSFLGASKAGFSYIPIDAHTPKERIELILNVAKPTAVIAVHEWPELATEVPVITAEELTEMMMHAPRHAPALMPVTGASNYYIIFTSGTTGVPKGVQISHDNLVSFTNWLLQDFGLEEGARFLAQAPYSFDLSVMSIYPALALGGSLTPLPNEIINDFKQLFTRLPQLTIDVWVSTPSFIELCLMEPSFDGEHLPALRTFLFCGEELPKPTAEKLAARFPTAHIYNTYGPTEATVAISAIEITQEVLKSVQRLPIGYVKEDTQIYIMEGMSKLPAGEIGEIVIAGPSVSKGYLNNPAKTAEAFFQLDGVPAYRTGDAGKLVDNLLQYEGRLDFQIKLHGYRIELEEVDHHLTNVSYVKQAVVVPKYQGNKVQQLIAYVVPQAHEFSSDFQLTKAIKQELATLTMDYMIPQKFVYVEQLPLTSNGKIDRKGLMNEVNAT
Description: as §1, §2, §3

[3] = molecular target: T3, S. aureus DltA (Staphylococcus aureus, UniProt Q2FZW6); assay: in vitro DltA activity assay (luminescence, IC50 determination); assay type: biochemical
T3 construct: made in house; host or cells: E. coli BL21
T3 sequence (Q2FZW6 1-485): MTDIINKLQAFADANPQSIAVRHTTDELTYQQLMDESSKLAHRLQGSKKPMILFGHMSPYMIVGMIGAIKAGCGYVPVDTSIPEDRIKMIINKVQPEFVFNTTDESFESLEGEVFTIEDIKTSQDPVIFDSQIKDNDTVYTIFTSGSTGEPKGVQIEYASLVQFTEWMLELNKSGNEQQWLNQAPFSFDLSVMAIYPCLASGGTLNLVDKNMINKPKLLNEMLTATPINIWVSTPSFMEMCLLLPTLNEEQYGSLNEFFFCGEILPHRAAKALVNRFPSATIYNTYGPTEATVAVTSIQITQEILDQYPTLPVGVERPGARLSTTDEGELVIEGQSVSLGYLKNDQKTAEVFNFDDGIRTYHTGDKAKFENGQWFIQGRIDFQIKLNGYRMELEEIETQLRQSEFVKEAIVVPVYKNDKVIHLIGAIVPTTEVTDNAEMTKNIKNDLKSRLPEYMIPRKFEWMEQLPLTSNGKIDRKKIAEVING
Description: as §1, with “The effect of the compounds of the invention on DltA enzymes has been based on the measure of their inhibition of DltA activity in vitro. To” for “To”
as §2, §3

[4] = molecular target: T4, E. feacium DltA (Enterococcus faecium, UniProt Q3XZT7); assay: as above; assay type: biochemical; details: recombinant DltA, 30min preincubation at room temperature, 0.5mM D-Alanine, 0.5-5µM ATP; read-out: E. feacium DltA IC50
T4 sequence (Q3XZT7 1-504): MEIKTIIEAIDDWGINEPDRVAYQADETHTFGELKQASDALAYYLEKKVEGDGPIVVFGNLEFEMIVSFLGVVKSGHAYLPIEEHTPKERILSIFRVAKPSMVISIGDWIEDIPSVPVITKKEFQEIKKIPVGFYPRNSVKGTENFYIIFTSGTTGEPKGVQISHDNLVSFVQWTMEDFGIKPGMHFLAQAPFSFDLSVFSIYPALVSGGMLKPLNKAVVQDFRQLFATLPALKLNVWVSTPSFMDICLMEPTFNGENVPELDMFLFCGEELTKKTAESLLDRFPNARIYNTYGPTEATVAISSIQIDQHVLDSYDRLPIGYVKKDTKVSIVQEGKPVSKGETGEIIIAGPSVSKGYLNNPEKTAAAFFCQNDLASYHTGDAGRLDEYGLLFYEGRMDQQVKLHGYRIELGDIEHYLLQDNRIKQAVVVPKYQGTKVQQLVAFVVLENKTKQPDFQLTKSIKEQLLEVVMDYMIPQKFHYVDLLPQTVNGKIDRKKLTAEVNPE
Description: as §1, with “The effect of the compounds of the invention on DltA enzymes has been based on the measure of their inhibition of DltA activity in vitro. To” for “To”
as §2, §3

Structure (SMILES)	IC50 [1]	IC50 [2]	IC50 [3]	IC50 [4]
CN1CC=C(c2cn(-c3ccc4c(c3)ncn4C3CCCCC3)c3nc[nH]c(=O)c23)CC1 [Example 53, 7-(1-cyclohexyl-1H-benzoimidazol-5-yl)-5-(1-methyl-1,2,3,6-tetrahydro-pyridin-4-yl)-3,7-dihydro-pyrrolo[2,3-d]pyrimidin-4-one]	0.59 µM	0.013 µM	0.15 µM	0.094 µM
O=c1[nH]cnc2c(-c3ccc4c(c3)ncn4C3CCCOC3)sc(N3CC[C@H](CO)C3)c12 (stereo partly drawn) [Example 49, 5-((S)-3-hydroxymethyl-pyrrolidin-1-yl)-7-[1-(tetrahydro-pyran-3-yl)-1-H-benzoimidazol-5-yl]-3H-thieno[3,4-d]pyrimidin-4-one]	3.3 µM	0.082 µM	0.097 µM	0.16 µM
O=c1[nH]cnc2c(-c3ccc4c(c3)ncn4C3CCCCC3)cn(CCCO)c12 [Example 67, 7-(1-Cyclohexyl-1H-benzimidazol-5-yl)-5-(3-hydroxy-propyl)-3,5-dihydro-pyrrolo[3,2-d]pyrimidin-4-one]	3.8 µM	0.18 µM	0.15 µM	0.93 µM
O=c1[nH]cnc2c(-c3ccc4c(c3)ncn4C3CCCCC3)cn(C3CCCC(O)C3)c12 (racemic) [Example 70A, 7-(1-Cyclohexyl-1H-benzimidazol-5-yl)-5-(3-hydroxy-cyclohexyl)-3,5-dihydro-pyrrolo[3,2-d]pyrimidin-4-one]	2.4 µM	0.57 µM	0.66 µM	0.92 µM
O=c1[nH]cnc2c(-c3ccc4c(c3)ncn4C3CCCCC3)sc(N3CC4CNCC4C3)c12 (centres unmarked) [Example 25, 7-(1-Cyclohexyl-1H-benzoimidazol-5-yl)-5-(hexahydro-pyrrolo[3,4-c]pyrrol-2-yl)-3H-thieno[3,4-d]pyrimidin-4-one hydrochloride]	0.63 µM	0.022 µM	0.039 µM	0.088 µM
CC(C)N1CCC(n2cc(-c3ccc4c(c3)ncn4C3CCCCC3)c3nc[nH]c(=O)c32)CC1 [Example 82, 7-(1-Cyclohexyl-1H-benzimidazol-5-yl)-5-(1-isopropyl-piperidin-4-yl)-3,5-dihydro-pyrrolo[3,2-d]pyrimidin-4-one]	1.9 µM	0.1 µM	0.056 µM	0.38 µM
O=c1[nH]cnc2c(-c3ccc4c(c3)ncn4C3CCCCC3)cn(C3CCOCC3)c12 [Example 81, 7-(1-Cyclohexyl-1H-benzimidazol-5-yl)-5-(tetrahydro-pyran-4-yl)-3,5-dihydro-pyrrolo[3,2-d]pyrimidin-4-one]	2.5 µM	0.17 µM	0.076 µM	0.3 µM
O=c1[nH]cnc2c(-c3ccc4c(c3)ncn4[C@@H]3CCCC[C@H]3F)sc(N3CC[C@H](CO)C3)c12 [Example 47, 7-[1-((1R,2R)-2-fluoro-cyclohexyl)-1H-benzoimidazol-5-yl]-5-((S)-3-hydroxymethyl-pyrrolidin-1-yl)-3H-thieno[3,4-d]pyrimidin-4-one]	2.6 µM	0.046 µM	0.077 µM	0.11 µM
